In patent US7087642B2 (priority 1999, dated 2006):

tested on: human PBMC B cells; assay: cells; type: cell-based; details: Homo sapiens, 72 h, read-out: B-cells (IC50)

| Compound | IC50 [µM] |
| --- | --- |
| CCN(CC)CC(OC(=O)Nc1ccc(NC(=O)Nc2ccc(-c3cnco3)c(OC)c2)cc1)C(C)(C)C (stereo not drawn) [Compound 132] | 0.1 to 1 |
| CCN(CC(OC(=O)NCc1cccc(NC(=O)Nc2ccc(-c3cnco3)c(OC)c2)c1)C1CCCCC1)C(C)C (stereo not drawn) [Compound 158] | 0.1 to 1 |
| CC[C@H](CCC#N)OC(=O)N[C@@H](C)c1cccc(NC(=O)Nc2ccc(C#N)c(OC)c2)c1 [Compound 162] | 0.1 to 1 |
| CCC(CC#N)OC(=O)NC(C)c1cccc(NC(=O)Nc2ccc(-c3cnco3)c(OC)c2)c1 (stereo not drawn) [Compound 163] | < 0.1 |
| CCN(CC)C[C@@H](OC(=O)NC(C)c1cccc(NC(=O)Nc2ccc(-c3cnco3)c(OC)c2)c1)c1ccccc1 (stereo partly drawn) [Compound 166] | 0.1 to 1 |
| CC[C@H](CC#N)OC(=O)N[C@@H](C)c1cccc(NC(=O)Nc2ccc(C#N)c(OC)c2)c1 [Compound 169] | < 0.1 |
| COc1cc(NC(=O)Nc2cccc([C@H](C)NC(=O)OCCC#N)c2)ccc1C#N [Compound 170] | 0.1 to 1 |
| COc1cc(NC(=O)Nc2cccc([C@@H](C)NC(=O)OCCC#N)c2)ccc1C#N [Compound 173] | 0.1 to 1 |
| CCC(CO)OC(=O)N[C@H](C)c1cccc(NC(=O)Nc2ccc(C#N)c(OC)c2)c1 (stereo partly drawn) [Compound 175] | > 1 |
| CC[C@H](CO)OC(=O)N[C@H](C)c1cccc(NC(=O)Nc2ccc(C#N)c(OC)c2)c1 [Compound 179] | > 1 |
| CC[C@H](CO)OC(=O)N[C@@H](C)c1cccc(NC(=O)Nc2ccc(C#N)c(OC)c2)c1 [Compound 180] | > 1 |
| CCC(CC#N)OC(=O)N[C@@H](C)c1cccc(NC(=O)Nc2ccc(-c3cnco3)c(OC)c2)c1 (stereo partly drawn) [Compound 181] | < 0.1 |
| CCOc1cc(NC(=O)Nc2cccc([C@H](C)NC(=O)O[C@H](CC)CC#N)c2)ccc1C#N [Compound 182] | 0.1 to 1 |
| C[C@H](NC(=O)O[C@H]1CCOC1)c1cccc(NC(=O)Nc2ccc(C#N)c(Cl)c2)c1 [Compound 187] | < 0.1 |

same assay, conditions: read-out: B-cells (IC50)

| Compound | IC50 [µM] |
| --- | --- |
| CCC(CC#N)OC(=O)N[C@H](C)c1cccc(NC(=O)Nc2ccc(C#N)c(OC)c2)c1 (stereo partly drawn) [Compound 174] | 0.1 to 1 |
| COc1cc(NC(=O)Nc2cccc([C@H](C)NC(=O)O[C@H]3CCOC3)c2)ccc1C#N [Compound 185] | 0.1 to 1 |

tested on: human PBMC T cells; assay: cells; type: cell-based; details: Homo sapiens, 72 h, read-out: T-cells (IC50)

| Compound | IC50 [µM] |
| --- | --- |
| CCN(CC)CC(OC(=O)Nc1ccc(NC(=O)Nc2ccc(-c3cnco3)c(OC)c2)cc1)C(C)(C)C (stereo not drawn) [Compound 132] | 0.1 to 1 |
| CCN(CC(OC(=O)NCc1cccc(NC(=O)Nc2ccc(-c3cnco3)c(OC)c2)c1)C1CCCCC1)C(C)C (stereo not drawn) [Compound 158] | > 1 |
| CC[C@H](CCC#N)OC(=O)N[C@@H](C)c1cccc(NC(=O)Nc2ccc(C#N)c(OC)c2)c1 [Compound 162] | 0.1 to 1 |
| CCC(CC#N)OC(=O)NC(C)c1cccc(NC(=O)Nc2ccc(-c3cnco3)c(OC)c2)c1 (stereo not drawn) [Compound 163] | < 0.1 |
| CCN(CC)C[C@@H](OC(=O)NC(C)c1cccc(NC(=O)Nc2ccc(-c3cnco3)c(OC)c2)c1)c1ccccc1 (stereo partly drawn) [Compound 166] | 0.1 to 1 |
| CC[C@H](CC#N)OC(=O)N[C@@H](C)c1cccc(NC(=O)Nc2ccc(C#N)c(OC)c2)c1 [Compound 169] | < 0.1 |
| COc1cc(NC(=O)Nc2cccc([C@H](C)NC(=O)OCCC#N)c2)ccc1C#N [Compound 170] | 0.1 to 1 |
| COc1cc(NC(=O)Nc2cccc([C@@H](C)NC(=O)OCCC#N)c2)ccc1C#N [Compound 173] | > 1 |
| CCC(CO)OC(=O)N[C@H](C)c1cccc(NC(=O)Nc2ccc(C#N)c(OC)c2)c1 (stereo partly drawn) [Compound 175] | > 1 |
| CC[C@H](CO)OC(=O)N[C@H](C)c1cccc(NC(=O)Nc2ccc(C#N)c(OC)c2)c1 [Compound 179] | > 1 |
| CC[C@H](CO)OC(=O)N[C@@H](C)c1cccc(NC(=O)Nc2ccc(C#N)c(OC)c2)c1 [Compound 180] | 0.1 to 1 |
| CCC(CC#N)OC(=O)N[C@@H](C)c1cccc(NC(=O)Nc2ccc(-c3cnco3)c(OC)c2)c1 (stereo partly drawn) [Compound 181] | < 0.1 |
| CCOc1cc(NC(=O)Nc2cccc([C@H](C)NC(=O)O[C@H](CC)CC#N)c2)ccc1C#N [Compound 182] | > 1 |
| C[C@H](NC(=O)O[C@H]1CCOC1)c1cccc(NC(=O)Nc2ccc(C#N)c(Cl)c2)c1 [Compound 187] | 0.1 to 1 |

same assay, conditions: read-out: T-cells (IC50)

| Compound | IC50 [µM] |
| --- | --- |
| CCC(CC#N)OC(=O)N[C@H](C)c1cccc(NC(=O)Nc2ccc(C#N)c(OC)c2)c1 (stereo partly drawn) [Compound 174] | > 1 |
| COc1cc(NC(=O)Nc2cccc([C@H](C)NC(=O)O[C@H]3CCOC3)c2)ccc1C#N [Compound 185] | 0.1 to 1 |

target: IMPDH human type II (Homo sapiens, UniProt P12268); assay: biochemical; details: not given

| Compound | Ki [µM] |
| --- | --- |
| CC[C@H](CC#N)OC(=O)N[C@@H](C)c1cccc(NC(=O)Nc2ccc(C#N)c(OC)c2)c1 [Compound 169] | < 0.01 |
| CCC(CC#N)OC(=O)N[C@H](C)c1cccc(NC(=O)Nc2ccc(C#N)c(OC)c2)c1 (stereo partly drawn) [Compound 174] | > 0.05 |
| C[C@H](NC(=O)O[C@H]1CCOC1)c1cccc(NC(=O)Nc2ccc(C#N)c(Cl)c2)c1 [Compound 187] | 0.01 to 0.05 |

same assay, conditions: read-out: Ki

| Compound | Ki [µM] |
| --- | --- |
| CCN(CC)CC(OC(=O)Nc1ccc(NC(=O)Nc2ccc(-c3cnco3)c(OC)c2)cc1)C(C)(C)C (stereo not drawn) [Compound 132] | > 0.05 |
| CCN(CC(OC(=O)NCc1cccc(NC(=O)Nc2ccc(-c3cnco3)c(OC)c2)c1)C1CCCCC1)C(C)C (stereo not drawn) [Compound 158] | 0.01 to 0.05 |
| CC[C@H](CCC#N)OC(=O)N[C@@H](C)c1cccc(NC(=O)Nc2ccc(C#N)c(OC)c2)c1 [Compound 162] | 0.01 to 0.05 |
| CCC(CC#N)OC(=O)NC(C)c1cccc(NC(=O)Nc2ccc(-c3cnco3)c(OC)c2)c1 (stereo not drawn) [Compound 163] | 0.01 to 0.05 |
| CCN(CC)C[C@@H](OC(=O)NC(C)c1cccc(NC(=O)Nc2ccc(-c3cnco3)c(OC)c2)c1)c1ccccc1 (stereo partly drawn) [Compound 166] | > 0.05 |
| COc1cc(NC(=O)Nc2cccc([C@H](C)NC(=O)OCCC#N)c2)ccc1C#N [Compound 170] | < 0.01 |
| COc1cc(NC(=O)Nc2cccc([C@@H](C)NC(=O)OCCC#N)c2)ccc1C#N [Compound 173] | > 0.05 |
| CCC(CO)OC(=O)N[C@H](C)c1cccc(NC(=O)Nc2ccc(C#N)c(OC)c2)c1 (stereo partly drawn) [Compound 175] | > 0.05 |
| CC[C@H](CO)OC(=O)N[C@H](C)c1cccc(NC(=O)Nc2ccc(C#N)c(OC)c2)c1 [Compound 179] | > 0.05 |
| CC[C@H](CO)OC(=O)N[C@@H](C)c1cccc(NC(=O)Nc2ccc(C#N)c(OC)c2)c1 [Compound 180] | 0.01 to 0.05 |
| CCC(CC#N)OC(=O)N[C@@H](C)c1cccc(NC(=O)Nc2ccc(-c3cnco3)c(OC)c2)c1 (stereo partly drawn) [Compound 181] | < 0.01 |
| CCOc1cc(NC(=O)Nc2cccc([C@H](C)NC(=O)O[C@H](CC)CC#N)c2)ccc1C#N [Compound 182] | > 0.05 |
| COc1cc(NC(=O)Nc2cccc([C@H](C)NC(=O)O[C@H]3CCOC3)c2)ccc1C#N [Compound 185] | 0.01 to 0.05 |
